Assay [1] has as its target T1, FXR (Homo sapiens, UniProt Q96RI1).
T1 construct: expressed in transfected cells; host or cells: HepG2
T1 sequence (Q96RI1 1-486): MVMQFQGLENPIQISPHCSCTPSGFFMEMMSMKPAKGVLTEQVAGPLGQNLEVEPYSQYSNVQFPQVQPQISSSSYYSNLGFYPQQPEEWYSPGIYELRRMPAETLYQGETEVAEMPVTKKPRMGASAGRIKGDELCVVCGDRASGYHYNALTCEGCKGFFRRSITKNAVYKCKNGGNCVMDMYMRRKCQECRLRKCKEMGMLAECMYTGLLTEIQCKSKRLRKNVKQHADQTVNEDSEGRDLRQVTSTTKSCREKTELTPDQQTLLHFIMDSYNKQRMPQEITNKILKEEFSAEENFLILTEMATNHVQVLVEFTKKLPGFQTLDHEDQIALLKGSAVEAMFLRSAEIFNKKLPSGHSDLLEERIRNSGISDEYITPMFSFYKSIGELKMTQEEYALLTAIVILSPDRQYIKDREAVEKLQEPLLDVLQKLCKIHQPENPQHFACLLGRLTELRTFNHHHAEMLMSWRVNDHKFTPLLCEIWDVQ
T1 sequence (P19793 1-462 partner): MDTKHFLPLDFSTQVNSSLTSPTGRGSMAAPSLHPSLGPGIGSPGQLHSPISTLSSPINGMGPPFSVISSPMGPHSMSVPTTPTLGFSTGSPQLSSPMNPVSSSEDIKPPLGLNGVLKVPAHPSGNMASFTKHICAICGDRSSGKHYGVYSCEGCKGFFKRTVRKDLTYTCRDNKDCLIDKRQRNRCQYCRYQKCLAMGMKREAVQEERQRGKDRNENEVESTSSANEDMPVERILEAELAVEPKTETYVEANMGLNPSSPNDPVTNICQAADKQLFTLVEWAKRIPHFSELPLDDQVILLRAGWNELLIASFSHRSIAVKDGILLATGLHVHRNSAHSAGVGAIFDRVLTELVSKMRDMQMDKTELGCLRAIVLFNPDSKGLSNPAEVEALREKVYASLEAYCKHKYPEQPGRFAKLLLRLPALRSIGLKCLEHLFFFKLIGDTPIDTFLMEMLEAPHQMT
The assay is described as follows: FXR mediated transactivation, IR1 (hsp27)-luciferase reporter in transfected HepG2 cells. As to conditions: compound at 10 μM, HepG2, vs maximal transactivation by CDCA 10 μM, triplicate. The class given is cell-based. The method, then:
(§1) Selected compounds were tested in vitro on FXR and TGR5/GPBAR1 receptors (Table 1) using a whole cell model transfected with a reporter genes. The activity was evaluated in comparison with chenodeoxycholic acid (CDCA) and TLCA.
(§2) CDCA is a primary bile acid that functions as an endogenous ligand for FXR, while TLCA is a physiological ligand for TGR5/GPBAR1. In this assay, HepG2 cells (a liver-derived cell line) were cultured at 37° C. in minimum essential medium with Earl's salts containing 10% fetal bovine serum (FBS), 1% L-glutamine, and 1% penicillin/streptomycin. HEK-293T cells were cultured at 37° C. in D-MEM containing 10% fetal bovine serum (FBS), 1% L-glutamine, and 1% penicillin/streptomycin. The transfection experiments were performed using Fugene HD according to manufactured specifications. Cells were plated in a 24-well plate at 5×10^4 cells/well. For FXR mediated transactivation, HepG2 cells were transfected with 100 ng of pSG5-FXR, 100 ng of pSG5-RXR, 100 ng of pGL4.70 a vector encoding the human Renilla gene and 250 ng of the reporter vector p(hsp27)-TK-LUC containing the FXR response element IR1 cloned from the promoter of heat shock protein 27 (hsp27).
(§3) The data on the activity of certain compounds of the invention on TGR5/GPBAR1 are described in the following table 1. In this table, activities for compounds of the invention on GPBAR1 was compared to those of the reference compound TLCA. For % of activity, each compound was tested at the concentration of 10 microM and transactivation activity of TLCA on CRE (i.e. TGR5/GPBAR1) was considered equal to 100%. For selectivity toward FXR, activity was assessed in HepG2 cells transfected with an FXR responsive element (IR1) cloned upstream to the luciferase gene. For calculation of efficacy data, maximal transactivation of IR1 caused by each compound (10 μM) was compared to maximal transactivation caused by CDCA (10 μM). GPBAR1/FXR selectivity calculated as ratio between % of activity toward GPBAR1 and % of activity toward FXR. Each experiment was conducted in triplicate.

The target of assay [2] is T2, human GPBAR1 (Homo sapiens, UniProt Q8TDU6).
T2 construct: expressed in transfected cells; host or cells: HEK-293T
T2 sequence (Q8TDU6 1-330): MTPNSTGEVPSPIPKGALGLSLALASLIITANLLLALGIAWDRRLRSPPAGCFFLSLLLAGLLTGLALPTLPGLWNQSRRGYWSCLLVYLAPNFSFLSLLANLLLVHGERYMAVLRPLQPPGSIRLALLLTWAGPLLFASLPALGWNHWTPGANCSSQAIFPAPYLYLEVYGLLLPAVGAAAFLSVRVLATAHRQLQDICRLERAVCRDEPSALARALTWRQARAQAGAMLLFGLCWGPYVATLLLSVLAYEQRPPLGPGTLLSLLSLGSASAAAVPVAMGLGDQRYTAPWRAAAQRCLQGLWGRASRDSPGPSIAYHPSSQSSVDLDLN
Nature of the assay: GPBAR1 mediated transactivation, CRE-luciferase reporter in transfected HEK-293T cells. In kind it is cell-based. The method, then:
as §1, §2
For GPBAR1 mediated transactivation, HEK-293T cells were transfected with 200 ng of pGL4.29, a reporter vector containing a cAMP response element (CRE) that drives the transcription of the luciferase reporter gene luc2P, with 100 ng of pCMVSPORT6-human GPBAR1, and with 100 ng of pGL4.70 a vector encoding the human Renilla gene. In control experiments HEK-293T cells were transfected only with vectors pGL4.29 and pGL4.70 to exclude any possibility that compounds could activate the CRE in a GPBAR1 independent manner. At 24 h post-transfection, cells were stimulated for 18 h with 10 μM TLCA as a control agent or putative GPBAR1 agonists as the same concentration. After treatments, cells were lysed in 100 μL of lysis buffer (25 mM Tris-phosphate, pH 7.8; 2 mM DTT; 10% glycerol; 1% Triton X-100), and 20 μL of cellular lysate was assayed for luciferase activity using the luciferase assay system. Luminescence was measured using Glomax 20/20 luminometer. Luciferase activities were normalized against Renilla activities. Antagonism against FXR of GPBAR1/TGR5 was measured as percent of activity in transactivation assay suing activity of TLCA as example of agonism.
as §3

The values below come from patent US20230066156A1, “6-SUBSTITUTED, 22-CYANO HYODEOXYCHOLANIC ANALOGUES AND USES THEREOF” (PRECISION BIO-THERAPEUTICS S.R.L., priority 2019, published 2023).

“And” between values parts separate entries of the source, which are not always exact repeats. Identical values can stand only once.

For the molecule `CC[C@]1(O)C[C@H]2[C@@H]3CC[C@H]([C@H](C)CC#N)[C@@]3(C)CC[C@@H]2[C@@]2(C)CC[C@@H](O)C[C@@H]12` [PBT110B, 3α,6α-dihydroxy-6β-ethyl-24-nor-5β-cholan-23-nitrile], the “FXR (% of activity in comparison to 10 μM CDCA)” value in assay [1] came out at 12.3 ± 0.47%. This molecule displayed an EC50 in assay [2] (HEK-293T CRE-luciferase transactivation) of 300 nM. The “GPBAR1 (% of activity in comparison to 10 μM TLCA)” value in assay [2] (compound at 10 microM, HEK-293T, TLCA = 100%, triplicate) was 101.2% and 101.2 ± 4.1%. Further, the GPBAR1/FXR selectivity in assay [2] (ratio between % of activity toward GPBAR1 and % of activity toward FXR) is 8.2.
